From the NIST ThermoML archive (doi:10.1016/j.jct.2008.10.002)

Columns and labels:
[1] = excess molar enthalpy (molar enthalpy of mixing); xn = mol fraction of the nth substance listed; settings: 303.15 K, 101.3 kPa, Liquid
[2] = xn = mol fraction of the nth substance listed; settings: 101.3 kPa, Liquid, Vibrating tube method
[3] = molar heat capacity at constant pressure; xn = mol fraction of the nth substance listed; settings: 101.3 kPa, Liquid, Small sample (50 mg) DSC

CCCCn1cc[n+](C)c1.COS(=O)(=O)[O-] [1-butyl-3-methylimidazolium methyl sulfate] + O
[1]
Settings	excess molar enthalpy [kcal/mol]
x1 = 0.0506	-0.0676
x1 = 0.1003	-0.0966
x1 = 0.1461	-0.115
x1 = 0.2018	-0.125
x1 = 0.299	-0.128
x1 = 0.4021	-0.117
x1 = 0.5447	-0.0987
x1 = 0.6795	-0.0755
x1 = 0.8434	-0.0413

Settings	mass density, [2] [kg/m3]	molar heat capacity at constant pressure, [3] [J/K/mol]
293.15 K, x1 = 0.0213	1041.7	84.8
293.15 K, x1 = 0.0489	1081	95.3
293.15 K, x1 = 0.0996	1123.8	112
293.15 K, x1 = 0.1975	1162.3	143.8
293.15 K, x1 = 0.2938	1180	175.2
293.15 K, x1 = 0.3948	1190.5	207.8
293.15 K, x1 = 0.4809	1196.3	235.7
293.15 K, x1 = 0.5724	1200.7	265.9
293.15 K, x1 = 0.6552	1203.6	293.4
293.15 K, x1 = 0.8002	1207.3	343.5
293.15 K, x1 = 0.8199	1207.7	–
293.15 K, x1 = 0.9554	1210	397.9
298.15 K, x1 = 0.0213	1039.7	84.8
298.15 K, x1 = 0.0489	1078.3	95.6
298.15 K, x1 = 0.0996	1120.5	112.6
298.15 K, x1 = 0.1975	1158.8	144.9
298.15 K, x1 = 0.2938	1176.5	176.5
298.15 K, x1 = 0.3948	1187	209.3
298.15 K, x1 = 0.4809	1192.9	237.3
298.15 K, x1 = 0.5724	1197.3	267.7
298.15 K, x1 = 0.6552	1200.3	295.3
298.15 K, x1 = 0.8002	1204	345.5
298.15 K, x1 = 0.8199	1204.3	–
298.15 K, x1 = 0.9554	1206.7	400.1
303.15 K, x1 = 0.0213	1037.5	84.9
303.15 K, x1 = 0.0489	1075.4	96
303.15 K, x1 = 0.0996	1117.1	113.3
303.15 K, x1 = 0.1975	1155.2	146.1
303.15 K, x1 = 0.2938	1173	177.8
303.15 K, x1 = 0.3948	1183.6	210.8
303.15 K, x1 = 0.4809	1189.5	239
303.15 K, x1 = 0.5724	1193.9	269.5
303.15 K, x1 = 0.6552	1196.9	297.3
303.15 K, x1 = 0.8002	1200.7	347.6
303.15 K, x1 = 0.8199	1201	–
303.15 K, x1 = 0.9554	1203.4	402.3
308.15 K, x1 = 0.0213	1035.2	84.9
308.15 K, x1 = 0.0489	1072.4	96.2
308.15 K, x1 = 0.0996	1113.6	113.9
308.15 K, x1 = 0.1975	1151.7	147.1
308.15 K, x1 = 0.2938	1169.5	179
308.15 K, x1 = 0.3948	1180.2	212.2
308.15 K, x1 = 0.4809	1186.1	240.5
308.15 K, x1 = 0.5724	1190.6	271.2
308.15 K, x1 = 0.6552	1193.6	299.2
308.15 K, x1 = 0.8002	1197.4	349.7
308.15 K, x1 = 0.8199	1197.7	–
308.15 K, x1 = 0.9554	1200.1	404.5
313.15 K, x1 = 0.0213	1032.7	84.9
313.15 K, x1 = 0.0489	1069.3	96.5
313.15 K, x1 = 0.0996	1110.1	114.5
313.15 K, x1 = 0.1975	1148	148.1
313.15 K, x1 = 0.2938	1166	180.3
313.15 K, x1 = 0.3948	1176.7	213.6
313.15 K, x1 = 0.4809	1182.7	242.1
313.15 K, x1 = 0.5724	1187.2	272.9
313.15 K, x1 = 0.6552	1190.3	301.2
313.15 K, x1 = 0.8002	1194.1	351.7
313.15 K, x1 = 0.8199	1194.4	–
313.15 K, x1 = 0.9554	1196.8	406.7
318.15 K, x1 = 0.0213	1030.1	85.1
318.15 K, x1 = 0.0489	1066.2	96.8
318.15 K, x1 = 0.0996	1106.6	115.2
318.15 K, x1 = 0.1975	1144.4	149.1
318.15 K, x1 = 0.2938	1162.5	181.6
318.15 K, x1 = 0.3948	1173.3	215
318.15 K, x1 = 0.4809	1179.3	243.7
318.15 K, x1 = 0.5724	1183.9	274.6
318.15 K, x1 = 0.6552	1186.9	303.1
318.15 K, x1 = 0.8002	1190.8	353.8
318.15 K, x1 = 0.8199	1191.1	–
318.15 K, x1 = 0.9554	1193.6	408.9
